Broadly, the aqueous solubility is how much of the substance goes into solution per volume. Higher therefore signals a readily soluble substance.

Experimental findings from patent EP1509519B1, “CRYSTALLINE FLUOROQUINOLONE ARGININE SALT FORM” (Wockhardt Limited, priority 2002, dated 2003) are described below.

“And” between values parts separate entries of the source, which are not always exact repeats. Equal entries are not always repeated.

The nature of data set [1]: bulk density determination. The class given is physicochemical. The source says:
Untapped density = 25 g/untapped volume. […] Tapped density = 25 g/Tapped volume.

A short description of a further data set: bioavailability. More on the design: species or system mammals. The following applies: in vivo.
Data set [2] is described as follows: mean mass diameter determination (laser diffraction). The following applies: for Mean mass diameter: individual samples made by the procedure of example 1, laser diffraction.
For data set [3] the following is noted: water.

As for `C[C@H]1CCc2c(N3CCC(O)CC3)c(F)cc3c(=O)c(C(=O)O)cn1c23`, the “Bulk density (tapped)” value in data set [1] (25 gm/tapped volume, tapped 150 times) was determined as 0.64 g/mL. For the same molecule, the “Bulk density (untapped)” value in data set [1] (25 gm/untapped volume) came to 0.57 g/mL. In addition, the bioavailability entry in the data set “bioavailability” is “favorable bioavailability”. For the same molecule, the Mean mass diameter entry is “less than or equal to 40 µm” in data set [2] (hydrate); 32.92 µm and 24.22 µm and 34.51 µm and 39.07 µm in data set [2] (listed as Example 1, hydrate). The “Mean mass diameter, mean value” in data set [2] (mean of four samples) turned out to be 32.68 µm.

For `CC1CCc2c(N3CCC(O)CC3)c(F)cc3c(=O)c(C(=O)O)cn1c23.N=C(N)NCCCC(N)C(=O)O` (racemic) [R, S-9-fluoro-6,7-dihydro-8-(4-hydroxypiperidin-1-yl)-5-methyl-1-oxo-1H,5H-benzo [i,j]-quinolizine-2-carboxylic acid DL-arginine salt], the antimicrobial activity result in the data set “antimicrobial activity” is given as “have antimicrobial activity”.

On to `CC1CCc2c(N3CCC(O)CC3)c(F)cc3c(=O)c(C(=O)O)cn1c23.N=C(N)NCCC[C@H](N)C(=O)O` (racemic) [RS-(±)-9-fluoro-6,7-dihydro-8-(4-hydroxypiperidin-1-yl)-5-methyl-1-oxo-1H,5H-benzo[i,j]quinolizine-2-carboxylic acid L-arginine salt], for which the antimicrobial activity result in the data set “antimicrobial activity” is recorded as “have antimicrobial activity”.

In the case of `CC1CCc2c(N3CCC(O)CC3)c(F)cc3c(=O)c(C(=O)O)cn1c23.N=C(N)NCCC[C@@H](N)C(=O)O` (racemic) [RS-(±)-9-fluoro-6,7-dihydro-8-(4-hydroxypiuenidin-1-yl)-5-methyl-1-oxo-1H,5H-benzo[i,j]quinolizine-2-carboxylic acid D-argirrine salt], the antimicrobial activity entry in “antimicrobial activity” is “have antimicrobial activity”.

As to `C[C@@H]1CCc2c(N3CCC(O)CC3)c(F)cc3c(=O)c(C(=O)O)cn1c23.N=C(N)NCCC[C@H](N)C(=O)O` [R-(+)-9-fluoro-6,7-dihydro-8-(4-hydroxypipe-1-yl)-5-1-oxo-1H,5H-benzo[i,j]quinolizine-2-carboxylic acid L-arginine salt], the antimicrobial activity result in the data set “antimicrobial activity” is reported as “have antimicrobial activity”.

In the case of `C[C@@H]1CCc2c(N3CCC(O)CC3)c(F)cc3c(=O)c(C(=O)O)cn1c23.N=C(N)NCCC[C@@H](N)C(=O)O` [R-(+)-9-fluoro-6,7-dihydro-8-(4-hydroxypiperidin-1-yl)-5-methyl-1-oxo-1H,5H-benzo[i,j]quinolizine-2-carboxylic acid D-arginine salt], the antimicrobial activity entry in the data set “antimicrobial activity” is “have antimicrobial activity”.

`C[C@H]1CCc2c(N3CCC(O)CC3)c(F)cc3c(=O)c(C(=O)O)cn1c23` [reference compound]: the “antimicrobial activity compared with the R-(+)- and RS-(±)-acids” value in the data set “antimicrobial activity” is listed as “more potent antimicrobial activity”. Further, the aqueous solubility in data set [3] is 0.8 to 2.0 mg/mL.

For the molecule “R-(+)-9-fluoro-6,7-dihydro-8-(4-hydroxypiperidin-1-yl)-5-methyl-1-oxo-1H,5H-benzo [ij]-quinolizine-2-carboxylic acid DL-arginine salt”, the antimicrobial activity entry in “antimicrobial activity” is “have antimicrobial activity”.

Consider “S-(-)-9-fluoro-6,7-dihydro-8-(4-hydroxypiperidin-1-yl)-5-methyl-1-oxo-1H,5H-benzo [ij]-quinolizine-2-carboxylic acid DL-arginine salt”, for which, in “antimicrobial activity”, the antimicrobial activity entry was “have antimicrobial activity”.
